Results published in EP0636624A1, “Thiazole derivatives as lipoxygenase inhibitors” (ZENECA LIMITED, priority 1993, dated 1995).

Legend:
hepatic enzymes = experiment: Auto-induction on repeated dosing (fall in C max / AUC); assay type: in vivo; details: repeated dosing to a warm-blooded animal
Text: The result is a decrease on repeat dosing of the quantity of the compound present in the animal's blood stream as shown, for example, by a decrease in the maximum concentration achieved (C max) or, for example, a decrease in the exposure of the animal to the compound as measured by the area under the curve (AUC) of a plot of the concentration of the compound in the blood stream versus time after dosing.

5-LO [1] = biological target: T1, 5-LO (Homo sapiens, UniProt P09917); experiment: Test a): in vitro heparinised human blood challenged with calcium ionophore A23187, LTB4 radioimmunoassay; assay type: cell-based; details: heparinised human blood, A23187 challenge; read-out: IC₅₀ against LTB₄ in test a)
T1 construct: incubating a test compound with heparinised human blood, prior to challenge with the calcium ionophore A23187; endogenous in cells; host or cells: blood cells of heparinised human whole blood
T1 sequence (P09917 1-674): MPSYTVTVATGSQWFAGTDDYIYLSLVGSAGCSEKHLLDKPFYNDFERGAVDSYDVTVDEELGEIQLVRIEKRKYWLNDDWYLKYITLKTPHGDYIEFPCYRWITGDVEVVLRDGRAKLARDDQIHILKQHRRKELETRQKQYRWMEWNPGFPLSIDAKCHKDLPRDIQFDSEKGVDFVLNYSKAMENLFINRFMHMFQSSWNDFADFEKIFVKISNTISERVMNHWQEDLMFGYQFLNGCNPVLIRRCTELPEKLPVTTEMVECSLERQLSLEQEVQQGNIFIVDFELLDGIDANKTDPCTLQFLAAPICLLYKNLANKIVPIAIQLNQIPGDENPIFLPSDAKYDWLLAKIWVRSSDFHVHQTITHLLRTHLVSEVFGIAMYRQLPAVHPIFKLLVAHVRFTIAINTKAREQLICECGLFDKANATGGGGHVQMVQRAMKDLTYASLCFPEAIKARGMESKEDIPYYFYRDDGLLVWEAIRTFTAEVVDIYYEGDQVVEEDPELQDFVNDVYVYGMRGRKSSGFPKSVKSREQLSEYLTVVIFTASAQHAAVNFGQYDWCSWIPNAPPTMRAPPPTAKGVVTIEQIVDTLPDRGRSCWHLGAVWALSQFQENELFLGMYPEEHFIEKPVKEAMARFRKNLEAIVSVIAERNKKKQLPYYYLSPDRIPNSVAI
Text: As stated previously, the compounds of the formula I are inhibitors of the enzyme 5-LO. […] J. Pharmacol. 1985, 84, 34P) which involve the use of a protein-LTB₄ conjugate produced using the procedure of Young et alia (Prostaglandins, 1983, 26(4), 605-613). The effects of a test compound on the enzyme cyclooxygenase (which is involved in the alternative metabolic pathway for arachidonic acid and gives rise to prostaglandins, thromboxanes and related metabolites) may be measured at the same time using the specific radioimmunoassay for thromboxane B₂(TxB₂) described by Carey and Forder (see above). This test provides an indication of the effects of a test compound against 5-LO and also cyclooxygenase in the presence of blood cells and proteins. It permits the selectivity of the inhibitory effect on 5-LO or cyclooxygenase to be assessed. • b) An ex vivo assay system, which is a variation of test a) above, involving administration to a group of rats of a test compound (usually orally as the suspension produced when a solution of the test compound in dimethylsulphoxide is added to carboxymethylcellulose), blood collection, heparinisation, challenge with A23187 and radioimmunoassay of LTB₄ and TxB₂. […]

5-LO [2] = experiment: Test c): in vivo zymosan-induced LTB4 liberation in rat subcutaneous air pouch; set-up: species or system male rats; details: oral, approximate value, 180 min

Row | IC50 (5-LO [1]) | Structure (SMILES) | auto-induction (hepatic enzymes) | IC₅₀ against LTB₄ in test c) (5-LO [2])
1 | – | COC1(c2ccc(Sc3ccc4c(c3)CCC(=O)N4C)s2)CCOCC1 [4-methoxy-4-[5-(1-methyl-2-oxo-1,2,3,4-tetrahydroquinolin-6-ylthio)-thien-2-yl]tetrahydropyran] | possesses the undesirable property of auto-induction | –
2 | 60 nM | CO[C@]1(c2cnc(Sc3ccc4c(c3)CCC(=O)N4C)s2)CCO[C@@H](C)C1 [Example 3, (2S,4R)-4-methoxy-2-methyl-4-[2-(1-methyl-2-oxo-1,2,3,4-tetrahydroquinolin-6-ylthio)thiazol-5-yl]tetrahydropyran] | – | approximately 0.2 mg/kg
